US20110245164A1 (INDIANA UNIVERSITY RESEARCH AND TECHNOLOGY, published 2011)
Non-standard residues stand in square brackets, D forms with d. Residues, ends and D or L forms follow the SMILES beside them. Groups on a side chain read outwards from the residue. *: point of attachment. Phe(4-NH2) = Nc1ccc(C[C@H](N)C(=O)O)cc1; X1 = CCCCCCN(CC(=O)*)C(=O)[C@H](N)CCCCN; Aib = CC(C)(N)C(=O)O; Sar = CNCC(=O)O

Assays:
Insulin Receptor = Insulin Receptor (Homo sapiens, UniProt P06213); experiment: Insulin receptor phosphorylation assay (receptor transfected HEK293 cells); assay type: cell-based; parameters: expressed in transfected cells; host or cells: HEK293; conditions: Table 10; IGF-1 receptor EC50 versus insulin receptor EC50
Insulin Receptor, sequence (P06213 28-758 limits assumed): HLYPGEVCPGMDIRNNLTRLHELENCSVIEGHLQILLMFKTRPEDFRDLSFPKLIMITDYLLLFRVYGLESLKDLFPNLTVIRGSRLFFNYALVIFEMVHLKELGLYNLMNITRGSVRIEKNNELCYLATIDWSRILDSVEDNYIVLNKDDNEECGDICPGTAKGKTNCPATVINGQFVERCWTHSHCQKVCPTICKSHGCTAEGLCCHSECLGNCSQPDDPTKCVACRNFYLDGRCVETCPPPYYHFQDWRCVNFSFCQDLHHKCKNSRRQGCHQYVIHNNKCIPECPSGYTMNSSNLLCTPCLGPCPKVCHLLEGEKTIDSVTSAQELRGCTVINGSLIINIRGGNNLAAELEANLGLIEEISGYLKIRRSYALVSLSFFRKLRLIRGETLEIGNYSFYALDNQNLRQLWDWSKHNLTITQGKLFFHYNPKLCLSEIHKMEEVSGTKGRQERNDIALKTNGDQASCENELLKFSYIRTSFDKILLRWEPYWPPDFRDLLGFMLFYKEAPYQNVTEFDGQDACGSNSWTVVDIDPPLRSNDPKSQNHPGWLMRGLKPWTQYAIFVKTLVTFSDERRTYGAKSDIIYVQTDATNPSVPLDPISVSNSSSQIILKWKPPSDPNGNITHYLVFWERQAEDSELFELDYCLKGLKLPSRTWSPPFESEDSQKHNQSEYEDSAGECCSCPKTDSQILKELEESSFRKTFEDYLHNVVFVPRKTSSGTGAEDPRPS
Insulin Receptor, sequence (P06213 763-1382 partner limits assumed): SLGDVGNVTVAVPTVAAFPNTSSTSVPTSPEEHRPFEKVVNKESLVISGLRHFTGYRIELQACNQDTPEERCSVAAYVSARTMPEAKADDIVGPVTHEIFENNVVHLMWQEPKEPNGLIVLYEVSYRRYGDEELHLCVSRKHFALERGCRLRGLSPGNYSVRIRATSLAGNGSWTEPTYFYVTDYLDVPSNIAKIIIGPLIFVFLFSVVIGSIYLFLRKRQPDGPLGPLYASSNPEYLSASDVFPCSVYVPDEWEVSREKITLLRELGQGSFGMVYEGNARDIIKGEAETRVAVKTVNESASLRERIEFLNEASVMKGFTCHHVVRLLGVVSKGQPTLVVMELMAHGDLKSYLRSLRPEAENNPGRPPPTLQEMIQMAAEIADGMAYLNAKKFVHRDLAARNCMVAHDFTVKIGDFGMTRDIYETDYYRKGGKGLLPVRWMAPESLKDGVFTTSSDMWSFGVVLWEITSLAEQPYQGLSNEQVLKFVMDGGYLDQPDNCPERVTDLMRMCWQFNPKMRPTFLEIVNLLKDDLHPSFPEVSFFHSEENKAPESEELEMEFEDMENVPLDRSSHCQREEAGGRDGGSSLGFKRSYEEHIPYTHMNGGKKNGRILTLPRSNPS

[1] = Dipeptide half life on IGF1 dipeptide extended (p-NH2-F)A19 amide derivatives in PBS (HPLC); assay type: physicochemical
Protocol: IGF-1 peptides was measured to determine the impact of the peptide sequence or heteroduplex on the dipeptide cleavage.
Accordingly, the IGF1A chain alone was determined to be a good model for the study of pro-drug half life on IGF1 B:A (Y^B16L^B17) derivative peptides. […] For simplicity, prodrug half lives were determined using only the IGF1 A chain in the absence of the B chain. The half lives of each propeptide was determined as described in Example 5.
The IGF^B16B17 derivative peptide prodrugs were incubated in PBS, pH 7.4 at 37° C. and at predetermined time intervals an aliquot was taken and further degradation was quenched with 0.1% TFA and the aliquot was subjected to analytical HPLC analysis. Peaks a and b, representing the prodrug and active forms of the IGF^B16B17 derivative peptide were identified with LC-MS and quantified by integration of peak area an HPLC. FIGS. 9A-9C show the output of an HPLC analysis of the degradation of the IGF^B16B17 derivativepeptide prodrug: IGF1A(Ala)^6,7,11,20(Aib-Pro-pNH-F)^19. Aliquots were taken at 20 minutes (FIG. 9A), 81 minutes (FIG. 9B) and 120 minutes (FIG. 9C) after beginning the incubation of the prodrug in PBS.

| SMILES | Selective Ratio (Insulin Receptor) | Half Life ([1]; buffer) | Half Life, PBS ([1]; buffer) | further results |
| --- | --- | --- | --- | --- |
| CC[C@H](C)[C@H](NC(=O)CN)C(=O)N[C@H](C(=O)N[C@@H](CC(=O)O)C(=O)N[C@@H](CCC(=O)O)C(=O)N[C@H]1CSSC[C@@H]2NC(=O)[C@H](CO)NC(=O)[C@H](CCCNC(=N)N)NC(=O)[C@H](Cc3ccccc3)NC(=O)[C@H](CSSC[C@H](NC(=O)[C@H](CC(C)C)NC(=O)[C@@H](NC(=O)[C@H](CCC(=O)O)NC(=O)[C@@H]3CCCN3C(=O)CN)[C@@H](C)O)C(=O)NCC(=O)N[C@@H](C)C(=O)N[C@@H](CC(=O)O)C(=O)N[C@@H](CC(C)C)C(=O)N[C@@H](C(C)C)C(=O)N[C@@H](CC(=O)O)C(=O)N[C@@H](C)C(=O)N[C@@H](CC(C)C)C(=O)N[C@@H](Cc3ccc(O)cc3)C(=O)N[C@@H](CC(C)C)C(=O)N[C@@H](C(C)C)C(=O)N[C@H](C(=O)NCC(=O)N[C@@H](CC(=O)O)C(=O)N[C@@H](CCCNC(=N)N)C(=O)NCC(=O)N[C@@H](Cc3ccccc3)C(=O)N[C@@H](Cc3ccc(O)cc3)C(N)=O)CSSC[C@@H](C(=O)N[C@@H](C)C(=O)O)NC(=O)[C@H](Cc3ccc(O)cc3)NC(=O)[C@H](CCSC)NC(=O)[C@H](CCC(=O)O)NC(=O)[C@H](CC(C)C)NC(=O)[C@H](CCCNC(=N)N)NC(=O)[C@H](CCCNC(=N)N)NC(=O)[C@H](CC(C)C)NC(=O)[C@H](CC(=O)O)NC2=O)NC1=O)C(C)C [IGF-1 A:B(D10Y16L17) DPI A-COOH] | 9.75 |  |  |  |
| CC[C@H](C)[C@H](NC(=O)CN)C(=O)N[C@H](C(=O)N[C@@H](CC(=O)O)C(=O)N[C@@H](CCC(=O)O)C(=O)N[C@H]1CSSC[C@@H]2NC(=O)[C@H](CO)NC(=O)[C@H](C)NC(=O)[C@H](Cc3c[nH]cn3)NC(=O)[C@H](CSSC[C@H](NC(=O)[C@H](CC(C)C)NC(=O)[C@H](Cc3c[nH]cn3)NC(=O)[C@H](CCC(=O)O)NC(=O)[C@@H]3CCCN3C(=O)CN)C(=O)NCC(=O)N[C@@H](C)C(=O)N[C@@H](CC(=O)O)C(=O)N[C@@H](CC(C)C)C(=O)N[C@@H](C(C)C)C(=O)N[C@@H](CC(=O)O)C(=O)N[C@@H](C)C(=O)N[C@@H](CC(C)C)C(=O)N[C@@H](Cc3ccc(O)cc3)C(=O)N[C@@H](CC(C)C)C(=O)N[C@@H](C(C)C)C(=O)N[C@H](C(=O)NCC(=O)N[C@@H](CC(=O)O)C(=O)N[C@@H](C)C(=O)NCC(=O)N[C@@H](Cc3ccccc3)C(=O)N[C@@H](Cc3ccc(O)cc3)C(N)=O)CSSC[C@@H](C(=O)N[C@@H](CC(N)=O)C(=O)O)NC(=O)[C@H](Cc3ccc(O)cc3)NC(=O)[C@H](CCSC)NC(=O)[C@H](CCC(=O)O)NC(=O)[C@H](CC(C)C)NC(=O)[C@H](CCCNC(=N)N)NC(=O)[C@H](CCCNC(=N)N)NC(=O)[C@H](CC(C)C)NC(=O)[C@H](CC(=O)O)NC2=O)NC1=O)C(C)C | 32.54 |  |  |  |
| CC[C@H](C)[C@H](NC(=O)CN)C(=O)N[C@H](C(=O)N[C@@H](CC(=O)O)C(=O)N[C@@H](CCC(=O)O)C(=O)N[C@@H](C)C(=O)N[C@@H](C)C(=O)N[C@@H](Cc1ccccc1)C(=O)N[C@@H](CCCNC(=N)N)C(=O)N[C@@H](CO)C(=O)N[C@@H](C)C(=O)N[C@@H](CC(=O)O)C(=O)N[C@@H](CC(C)C)C(=O)N[C@@H](CCCNC(=N)N)C(=O)N[C@@H](CCCNC(=N)N)C(=O)N[C@@H](CC(C)C)C(=O)N[C@@H](CCC(=O)O)C(=O)N[C@@H](CCSC)C(=O)N[C@@H](Cc1ccc(NC(=O)CN(C)C(=O)[C@@H](N)CCCCN)cc1)C(=O)N[C@@H](C)C(=O)N[C@@H](C)C(N)=O)C(C)C [K Sar] (H-GIVDEAAFRSADLRRLEM[Phe(4-NH2)]([Sar-Lys])AA-NH2) |  | 21.8 h | 21.8 h |  |
| CC[C@H](C)[C@H](NC(=O)CN)C(=O)N[C@H](C(=O)N[C@@H](CC(=O)O)C(=O)N[C@@H](CCC(=O)O)C(=O)N[C@@H](C)C(=O)N[C@@H](C)C(=O)N[C@@H](Cc1ccccc1)C(=O)N[C@@H](CCCNC(=N)N)C(=O)N[C@@H](CO)C(=O)N[C@@H](C)C(=O)N[C@@H](CC(=O)O)C(=O)N[C@@H](CC(C)C)C(=O)N[C@@H](CCCNC(=N)N)C(=O)N[C@@H](CCCNC(=N)N)C(=O)N[C@@H](CC(C)C)C(=O)N[C@@H](CCC(=O)O)C(=O)N[C@@H](CCSC)C(=O)N[C@@H](Cc1ccc(NC(=O)[C@H]2CCCN2C(=O)C(C)(C)N)cc1)C(=O)N[C@@H](C)C(=O)N[C@@H](C)C(N)=O)C(C)C [AiB dPro] (H-GIVDEAAFRSADLRRLEM[Phe(4-NH2)]([dP-Aib])AA-NH2) |  | 1.9 h | 2.1 h |  |
| CC[C@H](C)[C@H](NC(=O)CN)C(=O)N[C@H](C(=O)N[C@@H](CC(=O)O)C(=O)N[C@@H](CCC(=O)O)C(=O)N[C@@H](C)C(=O)N[C@@H](C)C(=O)N[C@@H](Cc1ccccc1)C(=O)N[C@@H](CCCNC(=N)N)C(=O)N[C@@H](CO)C(=O)N[C@@H](C)C(=O)N[C@@H](CC(=O)O)C(=O)N[C@@H](CC(C)C)C(=O)N[C@@H](CCCNC(=N)N)C(=O)N[C@@H](CCCNC(=N)N)C(=O)N[C@@H](CC(C)C)C(=O)N[C@@H](CCC(=O)O)C(=O)N[C@@H](CCSC)C(=O)N[C@@H](Cc1ccc(NC(=O)[C@@H]2CCCN2C(=O)C(C)(C)N)cc1)C(=O)N[C@@H](C)C(=O)N[C@@H](C)C(N)=O)C(C)C [AiB Pro] (H-GIVDEAAFRSADLRRLEM[Phe(4-NH2)]([Pro-Aib])AA-NH2) |  | 2.2 h | 2.2 h | degradation of prodrug to active form (HPLC), in words ([1]; pH 7.4): spontaneous, non-enzymatic conversion |
| CCCCCCN(CC(=O)Nc1ccc(C[C@H](NC(=O)[C@H](CCSC)NC(=O)[C@H](CCC(=O)O)NC(=O)[C@H](CC(C)C)NC(=O)[C@H](CCCNC(=N)N)NC(=O)[C@H](CCCNC(=N)N)NC(=O)[C@H](CC(C)C)NC(=O)[C@H](CC(=O)O)NC(=O)[C@H](C)NC(=O)[C@H](CO)NC(=O)[C@H](CCCNC(=N)N)NC(=O)[C@H](Cc2ccccc2)NC(=O)[C@H](C)NC(=O)[C@H](C)NC(=O)[C@H](CCC(=O)O)NC(=O)[C@H](CC(=O)O)NC(=O)[C@@H](NC(=O)[C@@H](NC(=O)CN)[C@@H](C)CC)C(C)C)C(=O)N[C@@H](C)C(=O)N[C@@H](C)C(N)=O)cc1)C(=O)[C@H](N)CCCCN [dK N-hexyl Gly] (H-GIVDEAAFRSADLRRLEM[Phe(4-NH2)](X1)AA-NH2; N-terminus assumed) |  |  |  | half-life ([1]; buffer, pH 7.4): 10.6 h |
| CC[C@H](C)[C@H](NC(=O)CN)C(=O)N[C@H](C(=O)N[C@@H](CC(=O)O)C(=O)N[C@@H](CCC(=O)O)C(=O)N[C@H]1CSSC[C@@H]2NC(=O)[C@H](CO)NC(=O)[C@H](C)NC(=O)[C@H](Cc3c[nH]cn3)NC(=O)[C@H](CSSC[C@H](NC(=O)[C@H](CC(C)C)NC(=O)[C@H](Cc3c[nH]cn3)NC(=O)[C@H](CCC(=O)O)NC(=O)[C@@H]3CCCN3C(=O)CN)C(=O)NCC(=O)N[C@@H](C)C(=O)N[C@@H](CC(=O)O)C(=O)N[C@@H](CC(C)C)C(=O)N[C@@H](C(C)C)C(=O)N[C@@H](CC(=O)O)C(=O)N[C@@H](C)C(=O)N[C@@H](CC(C)C)C(=O)N[C@@H](Cc3ccc(O)cc3)C(=O)N[C@@H](CC(C)C)C(=O)N[C@@H](C(C)C)C(=O)N[C@H](C(=O)NCC(=O)N[C@@H](CC(=O)O)C(=O)N[C@@H](CCCNC(=N)N)C(=O)NCC(=O)N[C@@H](Cc3ccccc3)C(=O)N[C@@H](Cc3ccc(O)cc3)C(N)=O)CSSC[C@@H](C(=O)N[C@@H](CC(N)=O)C(=O)O)NC(=O)[C@H](Cc3ccc(O)cc3)NC(=O)[C@H](CCSC)NC(=O)[C@H](CCC(=O)O)NC(=O)[C@H](CC(C)C)NC(=O)[C@H](CCCNC(=N)N)NC(=O)[C@H](CCCNC(=N)N)NC(=O)[C@H](CC(C)C)NC(=O)[C@H](CC(=O)O)NC2=O)NC1=O)C(C)C | 2.81 |  |  |  |
